Results on 32 compounds are retold here after patent US7951802B2, “Use of 7-azaindoles in the inhibition of c-Jun N-terminal kinase” (Eisai R&D Management Co., Ltd., priority 2007, dated 2011).

pIC50: −log10 of the molar value. Bounds are passed on as bounds.

A word on the pIC50: it is the negative decadic logarithm of the IC50, by convention in mol/L.

One experiment relates to panel of 100 kinases. Description: Selectivity against a panel of kinases (Upstate/Millipore), expressed as Gini coefficient. The experiment is classed as biochemical. The settings on record: reference compounds with aromatic C(5) group, calculated from Table 4 data, concentration not given. As for the experimental part:
Selectivity of Compounds (I) Against a Panel of Kinases
Inhibitory potency of compound (I-8) and (I-60) at a concentration of 1 micromolar and (I-69) and (I-70) at a concentration of 5 micromolar with ATP concentration of 10 micromolar was determined at Upstate/Millipore against a panel of 100 kinases representing all major families within the kinome. The results are presented in Table 3 and are expressed as percentage of remaining activity.
For comparison purposes Table 4 contains the relevant inhibitory data for reference compounds A-L containing a (hetero)aromatic ring at C(5) of the 7-azaindole system.
Selectivity Expressed as Gini Coefficient
Selectivity of compounds according to the present invention and reference compounds expressed as Gini coefficient (J. Med. Chem. 2007, 50, 5773-5779) is shown in Table 5. The individual Gini coefficients have been calculated using the data in Tables 3 and 4. Value Gini=0 corresponds to a totally non-selective compound; value Gini=1 reflects perfect selectivity (inhibition of a single target only)

The next experiment concerns the target JNK3 (Homo sapiens, UniProt P53779). The experiment in a line: JNK3 SPA assay (phosphorylation of GST-c-Jun). The experiment is classed as biochemical. The settings on record: 3.33 μM ATP, GST-c-Jun substrate, read-out: IC50 against JNK3. The procedure:
JNK1, JNK2, JNK3—SPA Assay
JNK1, JNK2, JNK3—SPA Assay • 1. Compound is dissolved in DMSO to a convenient concentration and this is diluted in 10% DMSO to a five times concentrate of the desired starting concentration (frequently 1:100). • 2. 10 μl of 500 mM EDTA is added to alternative wells of the Opti-plate row, which will receive kinase reaction plus DMSO. This creates the negative control. • 3. For the JNK2 and JNK3 assay, compounds are prepared in six 2-fold dilutions with water and each concentration is tested in duplicate. For the JNK1 assay compounds are prepared in four 5-fold dilutions with water which are tested in triplicate. Controls are treated identically. • 4. 20 μl per well of each compound concentration is transferred to an Opti-plate, in duplicate. • 5. 30 μl (JNK2/3 SPA) or 50 μl (JNK1 SPA) of substrate solution (25 mM HEPES pH 7.5, 10 mM magnesium acetate with 3.33 μM ATP (JNK2/3) or 2 μM ATP (JNK1), approximately 7.5 kBq [γ-^33P] ATP, GST-c-Jun, in water) is added to each well. • 6. 50 μl (JNK2/3 SPA) or 30 μl (JNK1 SPA) of kinase solution (JNK in 25 mM HEPES pH 7.5, 10 mM Mg Acetate) is added to each well.
• 7. The plate is incubated for 30 minutes at room temperature. • 8. 100 μl of bead/stop solution is added to each well (5 mg/ml glutathione-PVT-SPA beads, 40 mM ATP in PBS). • 9. Plates are sealed and incubated for 30 minutes at room temperature, centrifuged for 10 minutes at 2500 g and counted. • 10. The IC50 values are calculated as the concentration of the compound being tested at which the phosphorylation of c-Jun is decreased to 50% of the control value.

Chain of JNK3 (P53779 whole entry, species assumed): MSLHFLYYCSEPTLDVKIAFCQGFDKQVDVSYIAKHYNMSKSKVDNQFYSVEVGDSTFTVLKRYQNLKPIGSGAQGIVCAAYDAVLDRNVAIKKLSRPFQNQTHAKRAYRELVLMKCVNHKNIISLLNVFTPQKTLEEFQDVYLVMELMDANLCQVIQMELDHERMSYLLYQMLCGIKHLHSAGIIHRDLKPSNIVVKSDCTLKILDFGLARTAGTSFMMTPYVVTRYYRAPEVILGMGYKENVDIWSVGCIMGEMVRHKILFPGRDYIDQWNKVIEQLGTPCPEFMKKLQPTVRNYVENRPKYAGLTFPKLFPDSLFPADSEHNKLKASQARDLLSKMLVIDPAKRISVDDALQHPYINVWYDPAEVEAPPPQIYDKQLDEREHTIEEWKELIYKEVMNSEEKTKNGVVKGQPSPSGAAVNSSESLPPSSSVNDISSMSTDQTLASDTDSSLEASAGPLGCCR

Take `CC(C)Cn1cc(-c2cnc3[nH]cc(-c4cnn(C)c4)c3c2)cn1` [F]: in the experiment on panel of 100 kinases, the “Selectivity expressed as Gini coefficient” value (“Selectivity expressed” for short) was 0.3777.

With `CN1CCN(c2nc(-c3c[nH]c4ncc(-c5ccccc5)cc34)cs2)CC1` [H], in the experiment on panel of 100 kinases, the “Selectivity expressed” value was 0.4917.

With `CN1CCC(c2csc(-c3cnc4[nH]cc(-c5cnn(C)c5)c4c3)n2)CC1` [E], in the experiment on panel of 100 kinases, the “Selectivity expressed” value is recorded as 0.3757.

For the compound `Cn1cc(-c2c[nH]c3ncc(-c4ccc(N5CCOCC5)cc4)cc23)cn1` [B], the “Selectivity expressed” value in the experiment on panel of 100 kinases is given as 0.3920.

Turning to `c1nc2[nH]cc(-c3cn[nH]c3)c2cc1-c1csc(C2CCNCC2)n1` [C], the “Selectivity expressed” value with panel of 100 kinases is 0.4129.

As to `CN(C)C(=O)c1nc(-c2c[nH]c3ncc(-c4ccccc4)cc23)cs1` [G], the “Selectivity expressed” value in the experiment with panel of 100 kinases is reported as 0.3501.

For the compound `c1ncc(-c2c[nH]c3ncc(-c4ccc(N5CCOCC5)cc4)cc23)s1` [L], the “Selectivity expressed” value with panel of 100 kinases is 0.3642.

Regarding `CN1CCN(c2ccc(-c3cnc4[nH]cc(-c5csc(C(=O)N6CCCCC6)n5)c4c3)cc2)CC1` [D], the “Selectivity expressed” value with panel of 100 kinases is on record as 0.2705.

Turning to `CN(C)c1ccc(-c2cnc3[nH]cc(-c4cn[nH]c4)c3c2)cc1` [A], the “Selectivity expressed” value with panel of 100 kinases is on record as 0.3368.

With `CN1CCN(C(=O)c2nc(-c3c[nH]c4ncc(-c5ccc(N6CCN(C)CC6)cc5)cc34)cs2)CC1` [J], the “Selectivity expressed” value in the experiment with panel of 100 kinases is listed as 0.3286.

Turning to `O=C(c1nc(-c2c[nH]c3ncc(C4CCC5(CC4)OCCO5)cc23)cs1)N1CCCCC1` [Compound I-25, {4-[5-(1,4-Dioxa-spiro[4.5]dec-8-yl)-1H-pyrrolo[2,3-b]pyridin-3-yl]-thiazol-2-yl}-piperidin-1-yl-methanone], the pIC50 on JNK3 was 7.80.

On to `CC1(C)C=CC(c2cnc3[nH]cc(-c4csc(C(=O)N5CCOCC5)n4)c3c2)=CC1` [Compound I-16, {4-[5-(4,4-Dimethyl-cyclohexa-1,5-dienyl)-1H-pyrrolo[2,3-b]pyridin-3-yl]-thiazol-2-yl}-morpholin-4-yl-methanone], for which the pIC50 on JNK3 was 6.40.

As for `c1nc(-c2c[nH]c3ncc([C@H]4CC[C@H](N5CCOCC5)CC4)cc23)cs1` [Compound I-59, 4-((1r,4r)-4-(3-(thiazol-4-yl)-1H-pyrrolo[2,3-b]pyridin-5-yl)cyclohexyl)morpholine], the pIC50 on JNK3 was 6.09.

In the case of `CN1CCN([C@H]2CC[C@H](c3cnc4[nH]cc(-c5csc(C6CCCN6C)n5)c4c3)CC2)CC1` (some centres unmarked) [Compound I-109, 4-(5-((1r,4r)-4-(4-methylpiperazin-1-yl)cyclohexyl)-1H-pyrrolo[2,3-b]pyridin-3-yl)-2-(1-methylpyrrolidin-2-yl)thiazole], the pIC50 on JNK3 is 5.76.

In the case of `CN1CCC(c2csc(-c3c[nH]c4ncc([C@H]5CC[C@H](N6CCOCC6)CC5)cc34)n2)CC1` [Compound I-78, 4-((1r,4r)-4-(3-(4-(1-methylpiperidin-4-yl)thiazol-2-yl)-1H-pyrrolo[2,3-b]pyridin-5-yl)cyclohexyl)morpholine], on JNK3, the pIC50 is 6.53.

On to `CN1CCCC1c1nc(-c2c[nH]c3ncc([C@H]4CC[C@@H](N5CCOCC5)CC4)cc23)cs1` (some centres unmarked) [Compound I-108, 4-((1s,4s)-4-(3-(2-(1-methylpyrrolidin-2-yl)thiazol-4-yl)-1H-pyrrolo[2,3-b]pyridin-5-yl)cyclohexyl)morpholine], for which the pIC50 at JNK3 was 5.91.

`CCOc1nc(-c2c[nH]c3ncc([C@H]4CC[C@H](N5CCCOCC5)CC4)cc23)cs1` [Compound I-125, 3-(2-ethoxy-1,3-thiazol-4-yl)-5-[trans-4-(1,4-oxazepan-4-yl)cyclohexyl]-1H-pyrrolo[2,3-b]pyridine]: at JNK3, the pIC50 was 6.28.

With `c1csc(-c2c[nH]c3ncc([C@H]4CC[C@H](N5CCOCC5)CC4)cc23)n1` [Compound I-89, 4-((1r,4r)-4-(3-(thiazol-2-yl)-1H-pyrrolo[2,3-b]pyridin-5-yl)cyclohexyl)morpholine], at JNK3, the pIC50 was 6.24.

Consider `COc1nc(-c2c[nH]c3ncc(C4CCCCC4)cc23)cs1` [Compound I-50, 4-(5-cyclohexyl-1H-pyrrolo[2,3-b]pyridin-3-yl)-2-methoxythiazole], for which the pIC50 on JNK3 is 6.05.

For `c1csc(-c2c[nH]c3ncc([C@H]4CC[C@H](N5CCCOCC5)CC4)cc23)n1` [Compound I-119, 4-((1r,4r)-4-(3-(thiazol-2-yl)-1H-pyrrolo[2,3-b]pyridin-5-yl)cyclohexyl)-1,4-oxazepane], the pIC50 at JNK3 was 5.98.

Consider `FC(F)(F)c1csc(-c2c[nH]c3ncc([C@H]4CC[C@H](N5CCCC5)CC4)cc23)n1` [Compound I-84, 2-(5-((1r,4r)-4-(pyrrolidin-1-yl)cyclohexyl)-1H-pyrrolo[2,3-b]pyridin-3-yl)-4-(trifluoromethyl)thiazole], for which, at JNK3, the pIC50 is 6.16.

`CN1CCN(C(=O)c2nc(-c3c[nH]c4ncc(C5=CCC(C)(C)C=C5)cc34)cs2)CC1` [Compound I-17, {4-[5-(4,4-Dimethyl-cyclohexa-1,5-dienyl)-1H-pyrrolo[2,3-b]pyridin-3-yl]-thiazol-2-yl}-(4-methyl-piperazin-1-yl)-methanone]: the pIC50 at JNK3 was 7.40.

As to `Cc1cnc(-c2c[nH]c3ncc([C@H]4CC[C@H](N5CCOCC5)CC4)cc23)s1` [Compound I-62, 4-((1r,4r)-4-(3-(5-methylthiazol-2-yl)-1H-pyrrolo[2,3-b]pyridin-5-yl)cyclohexyl)morpholine], the pIC50 at JNK3 is 6.06.

Turning to `O=C(c1nc(-c2c[nH]c3ncc(C4=CCCC4)cc23)cs1)N1CCOCC1` [Compound I-3, [4-(5-Cyclopent-1-enyl-1H-pyrrolo[2,3-b]pyridin-3-yl)-thiazol-2-yl]-morpholin-4-yl-methanone], the pIC50 at JNK3 is 7.42.

For the compound `Cc1nc(-c2c[nH]c3ncc([C@H]4CC[C@@H](N5CCCOCC5)CC4)cc23)cs1` [Compound I-76, 4-((1s,4s)-4-(3-(2-methylthiazol-4-yl)-1H-pyrrolo[2,3-b]pyridin-5-yl)cyclohexyl)-1,4-oxazepane], the pIC50 on JNK3 was less than 6.00.

Consider `c1csc(-c2c[nH]c3ncc([C@H]4CC[C@@H](N5CCOCC5)CC4)cc23)n1` [Compound I-90, 4-((1s,4s)-4-(3-(thiazol-2-yl)-1H-pyrrolo[2,3-b]pyridin-5-yl)cyclohexyl)morpholine], for which the pIC50 at JNK3 is 5.88.

On to `Cc1nc(-c2c[nH]c3ncc([C@H]4CC[C@H](N5CCCOCC5)CC4)cc23)sc1C` [Compound I-123, 3-(4,5-dimethyl-1,3-thiazol-2-yl)-5-[trans-4-(1,4-oxazepan-4-yl)cyclohexyl]-1H-pyrrolo[2,3-b]pyridine], for which the pIC50 at JNK3 was 5.97.

Turning to `Cc1csc(-c2c[nH]c3ncc([C@H]4CC[C@H](N5CCCOCC5)CC4)cc23)n1` [Compound I-117, 4-((1r,4r)-4-(3-(4-methylthiazol-2-yl)-1H-pyrrolo[2,3-b]pyridin-5-yl)cyclohexyl)-1,4-oxazepane], the pIC50 at JNK3 is 6.08.

For the compound `COc1nc(-c2c[nH]c3ncc([C@H]4CC[C@H](N5CCOCC5)CC4)cc23)cs1` [Compound I-120, 4-((1r,4r)-4-(3-(2-methoxythiazol-4-yl)-1H-pyrrolo[2,3-b]pyridin-5-yl)cyclohexyl)morpholine], the pIC50 at JNK3 was 6.32.

Turning to `O=C(c1nc(-c2c[nH]c3ncc([C@H]4CC[C@H](N5CCOCC5)CC4)cc23)cs1)N1CCCCC1` [Compound I-33, (4-(5-((1r,4r)-4-morpholinocyclohexyl)-1H-pyrrolo[2,3-b]pyridin-3-yl)thiazol-2-yl)(piperidin-1-yl)methanone], the pIC50 on JNK3 was 6.70.

Consider `O=C(c1nc(-c2c[nH]c3ncc(-c4ccccc4)cc23)cs1)N1CCOCC1` [K], for which, in the experiment on panel of 100 kinases, the “Selectivity expressed” value is 0.2968.

Consider `FC(F)(F)c1csc(-c2c[nH]c3ncc([C@H]4CC[C@H](N5CCCOCC5)CC4)cc23)n1` [Compound I-80, 4-((1r,4r)-4-(3-(4-(trifluoromethyl)thiazol-2-yl)-1H-pyrrolo[2,3-b]pyridin-5-yl)cyclohexyl)-1,4-oxazepane], for which, at JNK3, the pIC50 is 6.29.
